ChEMBL document CHEMBL4118281, “Azoalkyl ether imidazo[2,1-b]benzothiazoles as potentially antimicrobial agents with novel structural skeleton” (2018)
Converted amounts (≈) assume the structure as drawn. The source made the active and inactive calls. The rule behind the calls is not given here.

Experiments:
Staphylococcus aureus [1] = test: Antibacterial activity against methicillin-resistant Staphylococcus aureus N315 after 2 passages; type: functional
Cyberlindnera jadinii = test: Antifungal activity against Candida utilis after 24 hrs by two fold serial dilution based spectrophotometric analysis; type: functional; details: Williopsis jadinii
Staphylococcus aureus [2] = test: Bactericidal activity against methicillin-resistant Staphylococcus aureus N315 assessed as reduction in bacterial load at 4 times MIC after 140 mins by time kill assay (reference value: 6.413 log10CFU/ml); type: functional
Saccharomyces cerevisiae = test: Antifungal activity against Beer yeast after 24 hrs by two fold serial dilution based spectrophotometric analysis; type: functional
Calf thymus DNA [3] = test: Inhibition of neutral red binding to calf thymus DNA by UV-Visible spectroscopic method; type: nucleic-acid assay; details: Bos taurus
Staphylococcus aureus [4] = test: Antibacterial activity against methicillin-resistant Staphylococcus aureus N315 after 3 passages; type: functional
Staphylococcus aureus [5] = test: Antibacterial activity against methicillin-resistant Staphylococcus aureus N315 after 5 passages; type: functional
Staphylococcus aureus [6] = test: Bactericidal activity against methicillin-resistant Staphylococcus aureus N315 assessed as reduction in bacterial load at 4 times MIC after 120 mins by time kill assay (reference value: 5.77 log10CFU/ml); type: functional
Staphylococcus aureus [7] = test: Antibacterial activity against methicillin-resistant Staphylococcus aureus N315 after 6 passages; type: functional
Staphylococcus aureus [8] = test: Bactericidal activity against methicillin-resistant Staphylococcus aureus N315 assessed as reduction in bacterial load at 4 times MIC up to 1 hr by time kill assay; type: functional
Calf thymus DNA [9] = test: Binding affinity to calf thymus DNA assessed as DNA intercalation by UV-Visible spectroscopic method; type: nucleic-acid assay; details: Bos taurus
Escherichia coli [10] = test: Antibacterial activity against Escherichia coli DH52 after 24 hrs by micro broth dilution method; type: functional; details: DH52, 24 h
Shigella dysenteriae = test: Antibacterial activity against Shigella dysenteriae after 24 hrs by micro broth dilution method; type: functional
Staphylococcus aureus [11] = test: Bactericidal activity against methicillin-resistant Staphylococcus aureus N315 assessed as reduction in bacterial load at 4 times MIC after 240 mins by time kill assay (reference value: 10.42 log10CFU/ml); type: functional
Aspergillus flavus = test: Antifungal activity against Aspergillus flavus after 24 hrs by two fold serial dilution based spectrophotometric analysis; type: functional
Staphylococcus aureus [12] = test: Antibacterial activity against methicillin-resistant Staphylococcus aureus N315 after 4 passages; type: functional
Staphylococcus aureus [13] = test: Bactericidal activity against methicillin-resistant Staphylococcus aureus N315 assessed as reduction in bacterial load at 4 times MIC after 200 mins by time kill assay (reference value: 9.84 log10CFU/ml); type: functional
Staphylococcus aureus [14] = test: Antibacterial activity against methicillin-resistant Staphylococcus aureus N315 after 1 passage; type: functional
Calf thymus DNA [15] = test: Binding affinity to calf thymus DNA assessed as hypochromic shift by UV-Visible spectroscopic method; type: nucleic-acid assay; details: Bos taurus
Staphylococcus aureus [16] = test: Potency index, ratio of chloromycin MIC to compound MIC for methicillin-resistant Staphylococcus aureus N315; type: functional
Bacillus subtilis = test: Antibacterial activity against Bacillus subtilis after 24 hrs by micro broth dilution method; type: functional
Staphylococcus aureus [17] = test: Antibacterial activity against methicillin-resistant Staphylococcus aureus N315 after 16 passages; type: functional, organism-based
Calf thymus DNA [18] = test: Binding affinity to calf thymus DNA assessed as hypsochromic shift by UV-Visible spectroscopic method; type: nucleic-acid assay; details: Bos taurus
Staphylococcus aureus [19] = test: Bactericidal activity against methicillin-resistant Staphylococcus aureus N315 assessed as reduction in bacterial load at 4 times MIC after 270 mins by time kill assay (reference value: 10.26 log10CFU/ml); type: functional
Staphylococcus aureus [20] = test: Bactericidal activity against methicillin-resistant Staphylococcus aureus N315 assessed as reduction in bacterial load at 4 times MIC after 160 mins by time kill assay (reference value: 7.47 log10CFU/ml); type: functional
Salmonella typhi = test: Antibacterial activity against Bacillus typhi after 24 hrs by micro broth dilution method; type: functional, Salmonella enterica subsp. enterica serovar Typhi; details: Salmonella enterica
Staphylococcus aureus [21] = test: Bactericidal activity against methicillin-resistant Staphylococcus aureus N315 assessed as reduction in bacterial load at 4 times MIC after 220 mins by time kill assay (reference value: 10.39 log10CFU/ml); type: functional
Staphylococcus aureus [22] = test: Antibacterial activity against methicillin-resistant Staphylococcus aureus N315 after 8 passages; type: functional
Staphylococcus aureus [23] = test: Antibacterial activity against Staphylococcus aureus ATCC 25923 after 24 hrs by micro broth dilution method; type: functional; details: ATCC 25923, 24 h
Escherichia coli [24] = test: Antibacterial activity against Escherichia coli JM109 after 24 hrs by micro broth dilution method; type: functional; details: JM109, 24 h
Staphylococcus aureus [25] = test: Potency index, ratio of norfloxacin MIC to compound MIC for methicillin-resistant Staphylococcus aureus N315; type: functional
Staphylococcus aureus [26] = test: Bactericidal activity against methicillin-resistant Staphylococcus aureus N315 assessed as reduction in bacterial load at 4 times MIC after 180 mins by time kill assay (reference value: 8.63 log10CFU/ml); type: functional
Staphylococcus aureus [27] = test: Antibacterial activity against methicillin-resistant Staphylococcus aureus N315 after 7 passages; type: functional
Candida albicans = test: Antifungal activity against Candida albicans after 24 hrs by two fold serial dilution based spectrophotometric analysis; type: functional
Staphylococcus aureus [28] = test: Antibacterial activity against methicillin-resistant Staphylococcus aureus N315 after 24 hrs by micro broth dilution method; type: functional; details: N315, 24 h
Micrococcus luteus = test: Antibacterial activity against Micrococcus luteus ATCC 4698 after 24 hrs by micro broth dilution method; type: functional; details: NCTC 2665, 24 h
Pseudomonas aeruginosa = test: Antibacterial activity against Pseudomonas aeruginosa after 24 hrs by micro broth dilution method; type: functional
Bacillus = test: Antibacterial activity against Bacillus proteus ATCC 13315 after 24 hrs by micro broth dilution method; type: functional; details: ATCC 13315, 24 h
Pichia norvegensis = test: Antifungal activity against Candida mycoderma after 24 hrs by two fold serial dilution based spectrophotometric analysis; type: functional

Cc1ncc([N+](=O)[O-])n1CCCOCc1c(-c2ccccc2)nc2sc3ccccc3n12
MIC (Staphylococcus aureus [1]): 13 µM (≈ 5.82 µg/mL) | MIC (Cyberlindnera jadinii): 32 µg/mL (≈ 71.5 µM) | Activity (Staphylococcus aureus [2]): 3.29 log10CFU/ml | MIC (Saccharomyces cerevisiae): 256 µg/mL (≈ 572 µM) | inhibition (Calf thymus DNA [3]): Active | MIC (Staphylococcus aureus [4]): 14 µM (≈ 6.27 µg/mL) | MIC (Staphylococcus aureus [5]): 15 µM (≈ 6.71 µg/mL) | Activity (Staphylococcus aureus [6]): 5.77 log10CFU/ml | MIC (Staphylococcus aureus [7]): 15 µM (≈ 6.71 µg/mL) | Activity (Staphylococcus aureus [8]): >3 log10CFU/ml | Activity (Calf thymus DNA [9]): Active | MIC (Escherichia coli [10]): 4 µg/mL (≈ 8.94 µM) | MIC (Shigella dysenteriae): 4 µg/mL (≈ 8.94 µM) | Activity (Staphylococcus aureus [11]): 1.6 log10CFU/ml | MIC (Aspergillus flavus): 8 µg/mL (≈ 17.9 µM) | MIC (Staphylococcus aureus [12]): 16 µM (≈ 7.16 µg/mL) | Activity (Staphylococcus aureus [13]): 1.74 log10CFU/ml | MIC (Staphylococcus aureus [14]): 13 µM (≈ 5.82 µg/mL) | Activity (Calf thymus DNA [15]): Active | Ratio (Staphylococcus aureus [16]): 4 - 8 | MIC (Bacillus subtilis): 4 µg/mL (≈ 8.94 µM) | Activity (Staphylococcus aureus [17]): Active | Activity (Calf thymus DNA [18]): Dose-dependent effect | Activity (Staphylococcus aureus [19]): 1.81 log10CFU/ml | Activity (Staphylococcus aureus [20]): 1.98 log10CFU/ml | MIC (Salmonella typhi): 1 µg/mL (≈ 2.23 µM) | Activity (Staphylococcus aureus [21]): 1.66 log10CFU/ml | MIC (Staphylococcus aureus [22]): 15 µM (≈ 6.71 µg/mL) | MIC (Staphylococcus aureus [23]): 8 µg/mL (≈ 17.9 µM) | MIC (Escherichia coli [24]): 4 µg/mL (≈ 8.94 µM) | Ratio (Staphylococcus aureus [25]): 4 - 8 | Activity (Staphylococcus aureus [26]): 1.81 log10CFU/ml | MIC (Staphylococcus aureus [27]): 15 µM (≈ 6.71 µg/mL) | MIC (Candida albicans): 2 µg/mL (≈ 4.47 µM) | MIC (Staphylococcus aureus [28]): 2 µg/mL (≈ 4.47 µM) | MIC (Micrococcus luteus): 32 µg/mL (≈ 71.5 µM) | MIC (Pseudomonas aeruginosa): 2 µg/mL (≈ 4.47 µM) | MIC (Bacillus): 8 µg/mL (≈ 17.9 µM) | MIC (Pichia norvegensis): 16 µg/mL (≈ 35.8 µM)
